Key:
[1] = test system: SETFA (Setaria faberi, giant foxtail); experiment: Pre-emergence soil-applied weed control, greenhouse (Example V); format: in vivo, Setaria faberi Herrm.; conditions: Table 59 (pre-emergence), 25 gai/ha alone
Text: Seeds or nutlets of the desired test plant species were planted in a soil matrix prepared by mixing a loam soil (32 percent silt, 23 percent clay, and 45 percent sand, with a pH of about 6.5 and an organic matter content of about 1.9 percent) and calcareous grit in an 80 to 20 ratio. The soil matrix was contained in plastic pots with a volume of 1 quart and a surface area of 83.6 square centimeters (cm^2).
Treatments consisted of the benzyl ester of 4-amino-3-chloro-5-fluoro-6-(4-chloro-2-fluoro-3-methoxy-phenyl)pyridine-2-carboxylic acid (compound A) formulated as an SC (suspension concentrate) and various herbicidal components alone and in combination. Forms of compound A were applied on an acid equivalent basis.
Other herbicidal components were applied on an acid equivalent or active ingredient basis and included the acetolactate synthase (ALS)-inhibiting herbicide, flazasulfuron, formulated as Katana®.
(§1) Treatment requirements were calculated based upon the rates being tested, the concentration of active ingredient or acid equivalent in the formulation, and a 12 mL application volume at a rate of 187 L/ha.
For treatments comprised of formulated compounds, measured amounts of compounds were placed individually in 25 mL glass vials and diluted in a volume of 1.25% (v/v) Agri-Dex® crop oil concentrate (COC) to obtain 12× stock solutions. […] Application solutions were prepared by adding an appropriate amount of each stock solution (e.g., 1 mL) and diluted to the appropriate final concentrations with the addition of 10 mL of an aqueous mixture of 1.25% (v/v) COC so that the final spray solutions contained 1.25% (v/v) COC. […]
The treated and control pots were placed in a greenhouse and top watered as needed. […] After approximately 4 weeks, the condition of the test plants as compared with that of the untreated plants was determined visually and scored on a scale of 0 to 100 percent where 0 corresponds to no injury or growth inhibition and 100 corresponds to complete kill. […]

[2] = test system: LEFCH (Leptochloa chinensis, Chinese sprangletop); experiment: Postemergence foliar-applied weed control, direct seeded rice, greenhouse (Example I); format: in vivo, Leptochloa chinensis (L.) Nees; conditions: 22 DAA
In short: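 Greenhouse-grown plants in loam/sandy loam–grit soil (14 h photoperiod, ~29/26 °C) were sprayed postemergence at the first to fourth true leaf stage. Compound A (acid equivalent basis) and ALS-inhibiting sulfonylureas (active ingredient basis) were applied alone and in combination in 1.25% (v/v) crop oil concentrate at 187 L/ha by track sprayer; controls received solvent blank.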

[3] = test system: IPOHE (Ipomoea hederacea, ivyleaf morningglory); experiment: as above; format: in vivo, Ipomoea hederacea Jacq.; conditions: 22 DAA
Text: Seeds or nutlets of the desired test plant species were planted in a soil matrix prepared by mixing a loam or sandy loam soil (e.g., 28.6 percent silt, 18.8 percent clay, and 52.6 percent sand, with a pH of about 5.8 and an organic matter content of about 1.8 percent) and calcareous grit in an 80 to 20 ratio. The soil matrix was contained in plastic pots with a volume of 1 quart and a surface area of 83.6 square centimeters (cm^2). When required to ensure good germination and healthy plants, a fungicide treatment and/or other chemical or physical treatment was applied. The plants were grown for 8-22 days in a greenhouse with an approximate 14 h photoperiod which was maintained at about 29° C. during the day and 26° C. during the night. Nutrients (Peters Excel® 15-5-15 5-Ca 2-Mg and iron chelate) were applied in the irrigation solution as needed and water was added on a regular basis. Supplemental lighting was provided with overhead metal halide 1000-Watt lamps as necessary. The plants were employed for testing when they reached the first through fourth true leaf stage.
Treatments consisted of the acid or esters of 4-amino-3-chloro-5-fluoro-6-(4-chloro-2-fluoro-3-methoxy-phenyl)pyridine-2-carboxylic acid (Compound A), each formulated as an SC, and various herbicidal components alone and in combination. Forms of compound A were applied on an acid equivalent basis.
Other herbicidal components were applied on an active ingredient basis and included acetolactate synthase (ALS)-inhibiting herbicides (sulfonylurea chemical class) azimsulfuron formulated as Gulliver®, bensulfuron-methyl formulated as Londax® 60DF, cyclosulfamuron (technical material), ethoxysulfuron formulated as Sunrice® 15 WDG, flazasulfuron formulated as Katana®, flucetosulfuron formulated as Sukedachi® 1KG G, foramsulfuron formulated as Option®, imazosulfuron formulated as Brazzos® WG, iodosulfuron-methyl-sodium formulated as Hussar®, metsulfuron-methyl formulated as Lorate®, nicosulfuron formulated as Accent®, orthosulfamuron formulated as Strada® WG, primisulfuron-methyl (technical material), propyrisulfuron formulated as Zeta One®, rimsulfuron formulated as Matrix® WG, sulfometuron-methyl formulated as Oust®, and trifloxysulfuron-sodium formulated as Monument® 75WG.
as §1
For treatments comprised of formulated compounds, measured amounts of compounds were placed individually in 25 mL glass vials and diluted in a volume of 1.25% (v/v) Agri-Dex® crop oil concentrated to obtain 12× stock solutions. […] Application solutions were prepared by adding an appropriate amount of each stock solution (e.g., 1 mL) and diluted to the appropriate final concentrations with the addition of 10 mL of an aqueous mixture of 1.25% (v/v) crop oil concentrate so that the final spray solutions contained 1.25+/−0.05% (v/v) Agrcrop oil concentrate.
For treatments comprised of formulated and technical compounds, weighed amounts of the technical materials were placed individually in 25 mL glass vials and dissolved in a volume of 97:3 v/v acetone/DMSO to obtain 12× stock solutions, and measured amounts of the formulated compounds were placed individually in 25 mL glass vials and diluted in a volume of 1.25% (v/v) crop oil concentrate to obtain 12× stock solutions. […] Application solutions were prepared by adding an appropriate amount of each stock solution (e.g., 1 mL) and diluted to the appropriate final concentrations with the addition of an appropriate amount of an aqueous mixture of 1.5% (v/v) crop oil concentrate so that the final spray solutions contained 1.25% (v/v) crop oil concentrate. […]

[4] = test system: VERPE (Veronica persica, bird's-eye speedwell); experiment: Post-emergence foliar-applied weed control in cereal crops, greenhouse (Example III); format: in vivo, Veronica persica Poir.; conditions: Table 51, after 20-22 days, 10 gai/ha alone
Protocol: (§2) Seeds of the desired test plant species were planted in Sun Gro MetroMix® 306 planting mixture, which typically has a pH of 6.0 to 6.8 and an organic matter content of about 30 percent, in plastic pots with a surface area of 103.2 square centimeters (cm^2). When required to ensure good germination and healthy plants, a fungicide treatment and/or other chemical or physical treatment was applied. The plants were grown for 7-36 days in a greenhouse with an approximate 14 hour photoperiod which was maintained at about 18° C. during the day and 17° C. during the night. Nutrients and water were added on a regular basis and supplemental lighting was provided with overhead metal halide 1000-Watt lamps as necessary. The plants were employed for testing when they reached the second or third true leaf stage.
(§3) Treatments consisted of the benzyl ester of 4-amino-3-chloro-5-fluoro-6-(4-chloro-2-fluoro-3-methoxy-phenyl)pyridine-2-carboxylic acid (Compound A), formulated as an SC (suspension concentrate), and a second cereal herbicide alone and in combination.
(§4) Measured aliquot of benzyl ester of 4-amino-3-chloro-5-fluoro-6-(4-chloro-2-fluoro-3-methoxy-phenyl)pyridine-2-carboxylic acid (Compound A) was placed in 25 milliliter (mL) glass vials and diluted in a volume of 1.25% (v/v) Agri-dex crop oil concentrated to obtain stock solutions. Compound requirements are based upon a 12 mL application volume at a rate of 187 liters per hectare (L/ha). Spray solutions of the second cereal herbicide and experimental compound mixtures were prepared by adding the stock solutions to the appropriate amount of dilution solution to form 12 mL spray solution with active ingredients in two- and three-way combinations. Formulated compounds were applied to the plant material with an overhead Mandel track sprayer equipped with an 8002E nozzle calibrated to deliver 187 L/ha over an application area of 0.503 square meters (m^2) at a spray height of 18 inches (46 cm) above average plant canopy. Control plants were sprayed in the same manner with the solvent blank.
(§5) The treated plants and control plants were placed in a greenhouse as described above and watered by sub-irrigation to prevent wash-off of the test compounds. After 20-22 days, the condition of the test plants as compared with that of the control plants was determined visually and scored on a scale of 0 to 100 percent where 0 corresponds to no injury and 100 corresponds to complete kill.
(§6) Colby's equation was used to determine the herbicidal effects expected from the mixtures (Colby, S. R. 1967. Calculation of the synergistic and antagonistic response of herbicide combinations. Weeds 15:20-22.).
(§7) The following equation was used to calculate the expected activity of mixtures containing two active ingredients, A and B: Expected=A+B−(A×B/100)

[5] = test system: GALAP (Galium aparine, cleavers); experiment: as above; format: in vivo, Galium aparine (L.); conditions: Table 51, after 20-22 days, 10 gai/ha alone
Protocol: as §2, with “The plants were employed for testing when they reached the second or third true leaf stage.” left out
Measured aliquot of benzyl ester of 4-amino-3-chloro-5-fluoro-6-(4-chloro-2-fluoro-3-methoxy-phenyl)pyridine-2-carboxylic acid (Compound A) was placed in 25 milliliter (mL) glass vials and diluted in a volume of 1.25% (v/v) Agri-dex crop oil concentrated to obtain stock solutions. […]
as §5, with “kill. […]” for “kill.”

[6] = test system: LAMPU (Lamium purpureum, purple deadnettle); experiment: as above; format: in vivo, Lamium purpureum (L.); conditions: Table 51, after 20-22 days, 10 gai/ha alone
Protocol: as §2, §3, §4, §5, §6, §7

Structure (SMILES) | Visual Weed Control (%) - 27 DAA SETFA Obs [1] [%] | Visual Weed Control Obs ([2]; 25 gai/ha) [%] | Visual Weed Control Obs ([2]; 50 gai/ha) [%] | Visual Weed Control Obs ([3]; 50 gai/ha) [%] | Visual Weed Control (%) Obs ([3]; 100 gai/ha) [%] | Visual Weed Control Obs ([3]; 100 gai/ha) [%] | Weed Control VERPE Obs [4] [%] | Weed Control GALAP Obs [5] [%] | Weed Control LAMPU Obs [6] [%]
COc1cc(OC)nc(NC(=O)NS(=O)(=O)c2ncccc2C(F)(F)F)n1 [Flazasulfuron, N-[[(4,6-dimethoxy-2-pyrimidinyl)amino]carbonyl]-3-(trifluoromethyl)-2-pyridinesulfonamide, reference compound] | 62 | 0 | 10 | 50 | 50 | 50 |  |  | 
COc1cc(OC)nc(NC(=O)NS(=O)(=O)N(C)S(C)(=O)=O)n1 [Amidosulfuron] |  |  |  |  |  |  | 0 | 48 | 0
